Source: patent US10485235B2, “Aryloxypyrimidinyl ethers as herbicides” (FMC Corporation, priority 2015, dated 2019)

tested on: not given; assay: not given; settings: not given

| Compound | melting point [°C] |
| --- | --- |
| FC(F)(F)COc1c(I)cccc1Oc1ncc(Cl)cn1 [Compound 65] | 87 to 90 |
| N#Cc1cccc(Oc2ncc(F)cn2)c1OCCCC(F)(F)F [Compound 4, 3-[(5-fluoro-2-pyrimidinyl)oxy]-2-(4,4,4-trifluorobutoxy)benzonitrile] | 70 to 74 |
| N#Cc1cccc(Oc2ncc(F)cn2)c1OCC(F)(F)F [Compound 41] | 58 to 63 |
| N#Cc1cccc(Oc2ncc(Cl)cn2)c1OC/C=C/C(F)(F)F [Compound 8, 3-[(5-chloro-2-pyrimidinyl)oxy]-2-[[(2E)-4,4,4-trifluoro-2-buten-1-yl]oxy]benzonitrile] | 102 to 106 |
| N#Cc1cccc(Oc2ncc(Cl)cn2)c1OCCCC(F)(F)F [Compound 5, 3-[(5-chloro-2-pyrimidinyl)oxy]-2-(4,4,4-trifluorobutoxy)benzonitrile] | 51 to 54 |

tested on: barnyardgrass (Echinochloa crus-galli); assay: Test A postemergence, barnyardgrass; format: in vivo; settings: Echinochloa crus-galli, post-emergence, 240 h; 31 g ai/ha, postemergence; 0 to 100 scale, 0 is no effect, 100 is complete control; approximately 10 days; read-out: Plant response rating, Barnyardgrass
Outline: (§1)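 Scores (0 no effect to 100 complete control) come from visual comparison of treated and untreated plants kept about 10 days in a greenhouse. Growth medium was a loam/sand blend; preemergence treatment was a directed soil spray, postemergence treatment went onto plants at the 1–2 leaf stage.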

| Compound | pest or weed control at 31 g/ha [%] |
| --- | --- |
| N#Cc1cccc(Oc2ncc(Cl)cn2)c1OCCC(F)(F)F [Compound 23, 3-[(5-chloro-2-pyrimidinyl)oxy]-2-(3,3,3-trifluoropropoxy)benzonitrile] | 50 |
| FC(F)(F)COc1c(I)cccc1Oc1ncc(Cl)cn1 [Compound 65] | 0 |
| N#Cc1cccc(Oc2ncc(F)cn2)c1OCCCC(F)(F)F [Compound 4, 3-[(5-fluoro-2-pyrimidinyl)oxy]-2-(4,4,4-trifluorobutoxy)benzonitrile] | 20 |
| N#Cc1cccc(Oc2ncc(F)cn2)c1OCC(F)(F)F [Compound 41] | 0 |
| N#Cc1cccc(Oc2ncc(Cl)cn2)c1OCC(F)(F)F [Compound 1] | 0 |
| N#Cc1cccc(Oc2ncc(Cl)cn2)c1OC/C=C/C(F)(F)F [Compound 8, 3-[(5-chloro-2-pyrimidinyl)oxy]-2-[[(2E)-4,4,4-trifluoro-2-buten-1-yl]oxy]benzonitrile] | 20 |
| N#Cc1cccc(Oc2ncc(Cl)cn2)c1OCCCC(F)(F)F [Compound 5, 3-[(5-chloro-2-pyrimidinyl)oxy]-2-(4,4,4-trifluorobutoxy)benzonitrile] | 70 |

same assay, conditions: Echinochloa crus-galli, post-emergence, 240 h; 125 g ai/ha, postemergence; 0 to 100 scale, 0 is no effect, 100 is complete control; approximately 10 days; read-out: Plant response rating, Barnyardgrass

| Compound | pest or weed control at 125 g/ha [%] |
| --- | --- |
| N#Cc1cccc(Oc2ncc(Cl)cn2)c1OCCC(F)(F)F [Compound 23, 3-[(5-chloro-2-pyrimidinyl)oxy]-2-(3,3,3-trifluoropropoxy)benzonitrile] | 90 |
| FC(F)(F)COc1c(I)cccc1Oc1ncc(Cl)cn1 [Compound 65] | 60 |
| N#Cc1cccc(Oc2ncc(F)cn2)c1OCCCC(F)(F)F [Compound 4, 3-[(5-fluoro-2-pyrimidinyl)oxy]-2-(4,4,4-trifluorobutoxy)benzonitrile] | 90 |
| N#Cc1cccc(Oc2ncc(F)cn2)c1OCC(F)(F)F [Compound 41] | 0 |
| N#Cc1cccc(Oc2ncc(Cl)cn2)c1OCC(F)(F)F [Compound 1] | 30 |
| N#Cc1cccc(Oc2ncc(Cl)cn2)c1OC/C=C/C(F)(F)F [Compound 8, 3-[(5-chloro-2-pyrimidinyl)oxy]-2-[[(2E)-4,4,4-trifluoro-2-buten-1-yl]oxy]benzonitrile] | 60 |
| N#Cc1cccc(Oc2ncc(Cl)cn2)c1OCCCC(F)(F)F [Compound 5, 3-[(5-chloro-2-pyrimidinyl)oxy]-2-(4,4,4-trifluorobutoxy)benzonitrile] | 100 |

tested on: foxtail, giant (giant foxtail, Setaria faberii); assay: Test A postemergence, giant foxtail; format: in vivo; settings: Setaria faberi, post-emergence, 240 h; 31 g ai/ha, postemergence; 0 to 100 scale, 0 is no effect, 100 is complete control; approximately 10 days; read-out: Plant response rating, Foxtail, Giant
Outline: as §1

| Compound | pest or weed control at 31 g/ha [%] |
| --- | --- |
| N#Cc1cccc(Oc2ncc(Cl)cn2)c1OCCC(F)(F)F [Compound 23, 3-[(5-chloro-2-pyrimidinyl)oxy]-2-(3,3,3-trifluoropropoxy)benzonitrile] | 20 |
| FC(F)(F)COc1c(I)cccc1Oc1ncc(Cl)cn1 [Compound 65] | 10 |
| N#Cc1cccc(Oc2ncc(F)cn2)c1OCCCC(F)(F)F [Compound 4, 3-[(5-fluoro-2-pyrimidinyl)oxy]-2-(4,4,4-trifluorobutoxy)benzonitrile] | 70 |
| N#Cc1cccc(Oc2ncc(F)cn2)c1OCC(F)(F)F [Compound 41] | 0 |
| N#Cc1cccc(Oc2ncc(Cl)cn2)c1OCC(F)(F)F [Compound 1] | 10 |
| N#Cc1cccc(Oc2ncc(Cl)cn2)c1OC/C=C/C(F)(F)F [Compound 8, 3-[(5-chloro-2-pyrimidinyl)oxy]-2-[[(2E)-4,4,4-trifluoro-2-buten-1-yl]oxy]benzonitrile] | 20 |
| N#Cc1cccc(Oc2ncc(Cl)cn2)c1OCCCC(F)(F)F [Compound 5, 3-[(5-chloro-2-pyrimidinyl)oxy]-2-(4,4,4-trifluorobutoxy)benzonitrile] | 60 |

same assay, conditions: Setaria faberi, post-emergence, 240 h; 125 g ai/ha, postemergence; 0 to 100 scale, 0 is no effect, 100 is complete control; approximately 10 days; read-out: Plant response rating, Foxtail, Giant

| Compound | pest or weed control at 125 g/ha [%] |
| --- | --- |
| N#Cc1cccc(Oc2ncc(Cl)cn2)c1OCCC(F)(F)F [Compound 23, 3-[(5-chloro-2-pyrimidinyl)oxy]-2-(3,3,3-trifluoropropoxy)benzonitrile] | 90 |
| FC(F)(F)COc1c(I)cccc1Oc1ncc(Cl)cn1 [Compound 65] | 50 |
| N#Cc1cccc(Oc2ncc(F)cn2)c1OCCCC(F)(F)F [Compound 4, 3-[(5-fluoro-2-pyrimidinyl)oxy]-2-(4,4,4-trifluorobutoxy)benzonitrile] | 100 |
| N#Cc1cccc(Oc2ncc(F)cn2)c1OCC(F)(F)F [Compound 41] | 0 |
| N#Cc1cccc(Oc2ncc(Cl)cn2)c1OCC(F)(F)F [Compound 1] | 20 |
| N#Cc1cccc(Oc2ncc(Cl)cn2)c1OC/C=C/C(F)(F)F [Compound 8, 3-[(5-chloro-2-pyrimidinyl)oxy]-2-[[(2E)-4,4,4-trifluoro-2-buten-1-yl]oxy]benzonitrile] | 90 |
| N#Cc1cccc(Oc2ncc(Cl)cn2)c1OCCCC(F)(F)F [Compound 5, 3-[(5-chloro-2-pyrimidinyl)oxy]-2-(4,4,4-trifluorobutoxy)benzonitrile] | 100 |

tested on: ryegrass, Italian (Italian ryegrass, Lolium multiflorum); assay: Test A postemergence, Italian ryegrass; format: in vivo; settings: Lolium multiflorum, post-emergence, 240 h; 31 g ai/ha, postemergence; 0 to 100 scale, 0 is no effect, 100 is complete control; approximately 10 days; read-out: Plant response rating, Ryegrass, Italian
Outline: as §1

| Compound | pest or weed control at 31 g/ha [%] |
| --- | --- |
| N#Cc1cccc(Oc2ncc(Cl)cn2)c1OCCC(F)(F)F [Compound 23, 3-[(5-chloro-2-pyrimidinyl)oxy]-2-(3,3,3-trifluoropropoxy)benzonitrile] | 20 |
| FC(F)(F)COc1c(I)cccc1Oc1ncc(Cl)cn1 [Compound 65] | 0 |
| N#Cc1cccc(Oc2ncc(F)cn2)c1OCCCC(F)(F)F [Compound 4, 3-[(5-fluoro-2-pyrimidinyl)oxy]-2-(4,4,4-trifluorobutoxy)benzonitrile] | 0 |
| N#Cc1cccc(Oc2ncc(F)cn2)c1OCC(F)(F)F [Compound 41] | 0 |
| N#Cc1cccc(Oc2ncc(Cl)cn2)c1OCC(F)(F)F [Compound 1] | 0 |
| N#Cc1cccc(Oc2ncc(Cl)cn2)c1OC/C=C/C(F)(F)F [Compound 8, 3-[(5-chloro-2-pyrimidinyl)oxy]-2-[[(2E)-4,4,4-trifluoro-2-buten-1-yl]oxy]benzonitrile] | 10 |
| N#Cc1cccc(Oc2ncc(Cl)cn2)c1OCCCC(F)(F)F [Compound 5, 3-[(5-chloro-2-pyrimidinyl)oxy]-2-(4,4,4-trifluorobutoxy)benzonitrile] | 20 |

same assay, conditions: Lolium multiflorum, post-emergence, 240 h; 125 g ai/ha, postemergence; 0 to 100 scale, 0 is no effect, 100 is complete control; approximately 10 days; read-out: Plant response rating, Ryegrass, Italian

| Compound | pest or weed control at 125 g/ha [%] |
| --- | --- |
| N#Cc1cccc(Oc2ncc(Cl)cn2)c1OCCC(F)(F)F [Compound 23, 3-[(5-chloro-2-pyrimidinyl)oxy]-2-(3,3,3-trifluoropropoxy)benzonitrile] | 40 |
| FC(F)(F)COc1c(I)cccc1Oc1ncc(Cl)cn1 [Compound 65] | 10 |
| N#Cc1cccc(Oc2ncc(F)cn2)c1OCCCC(F)(F)F [Compound 4, 3-[(5-fluoro-2-pyrimidinyl)oxy]-2-(4,4,4-trifluorobutoxy)benzonitrile] | 40 |
| N#Cc1cccc(Oc2ncc(F)cn2)c1OCC(F)(F)F [Compound 41] | 10 |
| N#Cc1cccc(Oc2ncc(Cl)cn2)c1OCC(F)(F)F [Compound 1] | 0 |
| N#Cc1cccc(Oc2ncc(Cl)cn2)c1OC/C=C/C(F)(F)F [Compound 8, 3-[(5-chloro-2-pyrimidinyl)oxy]-2-[[(2E)-4,4,4-trifluoro-2-buten-1-yl]oxy]benzonitrile] | 60 |
| N#Cc1cccc(Oc2ncc(Cl)cn2)c1OCCCC(F)(F)F [Compound 5, 3-[(5-chloro-2-pyrimidinyl)oxy]-2-(4,4,4-trifluorobutoxy)benzonitrile] | 40 |

tested on: kochia (Kochia scoparia); assay: Test A postemergence, kochia; format: in vivo; settings: Bassia scoparia, post-emergence, 240 h; 31 g ai/ha, postemergence; 0 to 100 scale, 0 is no effect, 100 is complete control; approximately 10 days; read-out: Plant response rating, Kochia
Outline: as §1

| Compound | pest or weed control at 31 g/ha [%] |
| --- | --- |
| N#Cc1cccc(Oc2ncc(Cl)cn2)c1OCCC(F)(F)F [Compound 23, 3-[(5-chloro-2-pyrimidinyl)oxy]-2-(3,3,3-trifluoropropoxy)benzonitrile] | 90 |
| FC(F)(F)COc1c(I)cccc1Oc1ncc(Cl)cn1 [Compound 65] | 80 |
| N#Cc1cccc(Oc2ncc(F)cn2)c1OCCCC(F)(F)F [Compound 4, 3-[(5-fluoro-2-pyrimidinyl)oxy]-2-(4,4,4-trifluorobutoxy)benzonitrile] | 90 |
| N#Cc1cccc(Oc2ncc(F)cn2)c1OCC(F)(F)F [Compound 41] | 30 |
| N#Cc1cccc(Oc2ncc(Cl)cn2)c1OCC(F)(F)F [Compound 1] | 60 |
| N#Cc1cccc(Oc2ncc(Cl)cn2)c1OC/C=C/C(F)(F)F [Compound 8, 3-[(5-chloro-2-pyrimidinyl)oxy]-2-[[(2E)-4,4,4-trifluoro-2-buten-1-yl]oxy]benzonitrile] | 80 |
| N#Cc1cccc(Oc2ncc(Cl)cn2)c1OCCCC(F)(F)F [Compound 5, 3-[(5-chloro-2-pyrimidinyl)oxy]-2-(4,4,4-trifluorobutoxy)benzonitrile] | 100 |

same assay, conditions: Bassia scoparia, post-emergence, 240 h; 125 g ai/ha, postemergence; 0 to 100 scale, 0 is no effect, 100 is complete control; approximately 10 days; read-out: Plant response rating, Kochia

| Compound | pest or weed control at 125 g/ha [%] |
| --- | --- |
| N#Cc1cccc(Oc2ncc(Cl)cn2)c1OCCC(F)(F)F [Compound 23, 3-[(5-chloro-2-pyrimidinyl)oxy]-2-(3,3,3-trifluoropropoxy)benzonitrile] | 100 |
| FC(F)(F)COc1c(I)cccc1Oc1ncc(Cl)cn1 [Compound 65] | 100 |
| N#Cc1cccc(Oc2ncc(F)cn2)c1OCCCC(F)(F)F [Compound 4, 3-[(5-fluoro-2-pyrimidinyl)oxy]-2-(4,4,4-trifluorobutoxy)benzonitrile] | 100 |
| N#Cc1cccc(Oc2ncc(F)cn2)c1OCC(F)(F)F [Compound 41] | 60 |
| N#Cc1cccc(Oc2ncc(Cl)cn2)c1OCC(F)(F)F [Compound 1] | 80 |
| N#Cc1cccc(Oc2ncc(Cl)cn2)c1OC/C=C/C(F)(F)F [Compound 8, 3-[(5-chloro-2-pyrimidinyl)oxy]-2-[[(2E)-4,4,4-trifluoro-2-buten-1-yl]oxy]benzonitrile] | 100 |
| N#Cc1cccc(Oc2ncc(Cl)cn2)c1OCCCC(F)(F)F [Compound 5, 3-[(5-chloro-2-pyrimidinyl)oxy]-2-(4,4,4-trifluorobutoxy)benzonitrile] | 100 |

tested on: galium (catchweed bedstraw, Galium aparine); assay: Test A postemergence, galium; format: in vivo; settings: Galium, post-emergence, 240 h; 31 g ai/ha, postemergence; 0 to 100 scale, 0 is no effect, 100 is complete control; approximately 10 days; read-out: Plant response rating, Galium
Outline: as §1

| Compound | pest or weed control at 31 g/ha [%] |
| --- | --- |
| N#Cc1cccc(Oc2ncc(Cl)cn2)c1OCCC(F)(F)F [Compound 23, 3-[(5-chloro-2-pyrimidinyl)oxy]-2-(3,3,3-trifluoropropoxy)benzonitrile] | 60 |
| FC(F)(F)COc1c(I)cccc1Oc1ncc(Cl)cn1 [Compound 65] | 30 |
| N#Cc1cccc(Oc2ncc(F)cn2)c1OCCCC(F)(F)F [Compound 4, 3-[(5-fluoro-2-pyrimidinyl)oxy]-2-(4,4,4-trifluorobutoxy)benzonitrile] | 50 |
| N#Cc1cccc(Oc2ncc(F)cn2)c1OCC(F)(F)F [Compound 41] | 10 |
| N#Cc1cccc(Oc2ncc(Cl)cn2)c1OCC(F)(F)F [Compound 1] | 10 |
| N#Cc1cccc(Oc2ncc(Cl)cn2)c1OC/C=C/C(F)(F)F [Compound 8, 3-[(5-chloro-2-pyrimidinyl)oxy]-2-[[(2E)-4,4,4-trifluoro-2-buten-1-yl]oxy]benzonitrile] | 40 |
| N#Cc1cccc(Oc2ncc(Cl)cn2)c1OCCCC(F)(F)F [Compound 5, 3-[(5-chloro-2-pyrimidinyl)oxy]-2-(4,4,4-trifluorobutoxy)benzonitrile] | 80 |

same assay, conditions: Galium, post-emergence, 240 h; 125 g ai/ha, postemergence; 0 to 100 scale, 0 is no effect, 100 is complete control; approximately 10 days; read-out: Plant response rating, Galium

| Compound | pest or weed control at 125 g/ha [%] |
| --- | --- |
| N#Cc1cccc(Oc2ncc(Cl)cn2)c1OCCC(F)(F)F [Compound 23, 3-[(5-chloro-2-pyrimidinyl)oxy]-2-(3,3,3-trifluoropropoxy)benzonitrile] | 90 |
| FC(F)(F)COc1c(I)cccc1Oc1ncc(Cl)cn1 [Compound 65] | 50 |
| N#Cc1cccc(Oc2ncc(F)cn2)c1OCCCC(F)(F)F [Compound 4, 3-[(5-fluoro-2-pyrimidinyl)oxy]-2-(4,4,4-trifluorobutoxy)benzonitrile] | 90 |
| N#Cc1cccc(Oc2ncc(F)cn2)c1OCC(F)(F)F [Compound 41] | 20 |
| N#Cc1cccc(Oc2ncc(Cl)cn2)c1OCC(F)(F)F [Compound 1] | 40 |
| N#Cc1cccc(Oc2ncc(Cl)cn2)c1OC/C=C/C(F)(F)F [Compound 8, 3-[(5-chloro-2-pyrimidinyl)oxy]-2-[[(2E)-4,4,4-trifluoro-2-buten-1-yl]oxy]benzonitrile] | 90 |
| N#Cc1cccc(Oc2ncc(Cl)cn2)c1OCCCC(F)(F)F [Compound 5, 3-[(5-chloro-2-pyrimidinyl)oxy]-2-(4,4,4-trifluorobutoxy)benzonitrile] | 100 |
